Assays:
Assay in all cases: Upstate KinaseProfiler radio-enzymatic filter binding assay
Type in all cases: biochemical
JNK2α2 = biological target: T1, JNK2α2 (Homo sapiens, UniProt P45984); details: at a concentration of 10 μM; read-out: percentage inhibition of JNK2α2
T1 construct: purchased Upstate
Procedure: (§1) Compounds of the invention are assessed for their ability to inhibit individual members of the kinase panel. The compounds are tested in duplicates at a final concentration of 10 μM following this generic protocol. Note that the kinase buffer composition and the substrates vary for the different kinases included in the “Upstate KinaseProfiler™” panel. Kinase buffer (2.5 μL, 10×—containing MnCl2 when required), active kinase (0.001-0.01 Units; 2.5 μL), specific or Poly(Glu4-Tyr) peptide (5-500 μM or 0.01 mg/ml) in kinase buffer and kinase buffer (50 μM; 5 μL) are mixed in an eppendorf on ice, A Mg/ATP mix (10 μL; 67.5 (or 33.75) mM MgCl2, 450 (or 225) μM ATP and 1 μCi/μl [γ-^32P]-ATP (3000 Ci/mmol)) is added and the reaction is incubated at about 30° C. for about 10 minutes. The reaction mixture is spotted (20 μL) onto a 2 cm×2 cm P81 (phosphocellulose, for positively charged peptide substrates) or Whatman No. 1 (for Poly (Glu4-Tyr) peptide substrate) paper square. The assay squares are washed 4 times, for 5 minutes each, with 0.75% phosphoric acid and washed once with acetone for 5 minutes. The assay squares are transferred to a scintillation vial, 5 ml scintillation cocktail are added and ^32P incorporation (cpm) to the peptide substrate is quantified with a Beckman scintillation counter. Percentage inhibition is calculated for each reaction.

MKK6 = biological target: T2, MKK6 (Homo sapiens, UniProt P52564); details: at a concentration of 10 μM; read-out: percentage inhibition of MKK6
T2 construct: purchased Upstate
T2 sequence (P52564 1-334): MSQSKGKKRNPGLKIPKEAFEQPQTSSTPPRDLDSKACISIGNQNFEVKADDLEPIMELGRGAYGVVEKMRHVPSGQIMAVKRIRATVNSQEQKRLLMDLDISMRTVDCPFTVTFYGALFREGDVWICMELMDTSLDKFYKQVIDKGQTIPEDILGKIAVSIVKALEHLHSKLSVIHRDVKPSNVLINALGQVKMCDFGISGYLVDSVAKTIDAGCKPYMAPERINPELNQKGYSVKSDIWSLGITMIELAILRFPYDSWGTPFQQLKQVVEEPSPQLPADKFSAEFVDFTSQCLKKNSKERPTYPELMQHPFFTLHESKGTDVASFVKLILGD
Procedure: as §1

PDGFRα = biological target: T3, PDGFRα (Homo sapiens, UniProt P16234); details: at a concentration of 10 μM; read-out: percentage inhibition of PDGFRα
T3 construct: purchased Upstate
T3 sequence (P16234 24-1089): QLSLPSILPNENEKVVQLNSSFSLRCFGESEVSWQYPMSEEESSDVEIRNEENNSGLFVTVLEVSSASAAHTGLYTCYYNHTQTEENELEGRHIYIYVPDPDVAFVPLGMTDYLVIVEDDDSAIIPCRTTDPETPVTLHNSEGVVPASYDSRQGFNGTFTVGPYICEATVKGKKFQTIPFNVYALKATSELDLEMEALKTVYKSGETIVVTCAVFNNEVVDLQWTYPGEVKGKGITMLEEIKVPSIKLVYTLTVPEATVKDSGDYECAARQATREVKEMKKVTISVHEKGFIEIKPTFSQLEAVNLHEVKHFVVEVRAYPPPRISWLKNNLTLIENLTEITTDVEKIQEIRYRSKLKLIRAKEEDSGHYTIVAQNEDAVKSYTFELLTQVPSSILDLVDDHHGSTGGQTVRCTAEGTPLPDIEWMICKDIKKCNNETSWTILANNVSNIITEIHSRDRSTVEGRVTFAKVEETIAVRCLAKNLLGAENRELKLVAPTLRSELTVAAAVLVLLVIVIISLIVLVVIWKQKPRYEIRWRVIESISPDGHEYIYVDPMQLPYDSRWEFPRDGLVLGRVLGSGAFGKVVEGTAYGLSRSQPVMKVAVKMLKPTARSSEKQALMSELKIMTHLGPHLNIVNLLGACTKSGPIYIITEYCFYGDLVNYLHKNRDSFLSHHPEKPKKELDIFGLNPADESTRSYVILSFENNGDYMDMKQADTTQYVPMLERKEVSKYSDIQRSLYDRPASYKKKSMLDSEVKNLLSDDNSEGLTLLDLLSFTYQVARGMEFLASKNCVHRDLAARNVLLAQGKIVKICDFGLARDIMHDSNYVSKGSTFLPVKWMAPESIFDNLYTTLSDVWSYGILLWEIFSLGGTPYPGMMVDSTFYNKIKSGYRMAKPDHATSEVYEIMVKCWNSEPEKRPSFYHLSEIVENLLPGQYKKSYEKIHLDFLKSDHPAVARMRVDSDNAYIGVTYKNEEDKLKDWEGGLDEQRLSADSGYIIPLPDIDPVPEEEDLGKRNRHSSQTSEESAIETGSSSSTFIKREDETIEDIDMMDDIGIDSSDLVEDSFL
Procedure: as §1

SAPK2α = biological target: T4, SAPK2α (Homo sapiens, UniProt Q16539); details: at a concentration of 10 μM; read-out: percentage inhibition of SAPK2α
T4 construct: purchased Upstate
T4 sequence (Q16539 whole entry): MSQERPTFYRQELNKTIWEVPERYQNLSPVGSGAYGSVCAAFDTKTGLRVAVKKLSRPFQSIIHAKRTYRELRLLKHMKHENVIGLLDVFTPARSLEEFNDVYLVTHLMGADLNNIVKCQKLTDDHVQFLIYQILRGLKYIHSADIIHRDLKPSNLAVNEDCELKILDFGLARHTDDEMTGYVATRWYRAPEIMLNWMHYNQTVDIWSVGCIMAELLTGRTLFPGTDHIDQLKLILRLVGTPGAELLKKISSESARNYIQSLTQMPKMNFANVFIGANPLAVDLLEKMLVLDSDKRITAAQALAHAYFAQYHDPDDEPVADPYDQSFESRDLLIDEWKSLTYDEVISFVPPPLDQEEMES
Procedure: as §1

SAPK2β = biological target: T5, SAPK2β (Homo sapiens, UniProt Q15759); details: at a concentration of 10 μM; read-out: percentage inhibition of SAPK2β
T5 construct: purchased Upstate
T5 sequence (Q15759 whole entry): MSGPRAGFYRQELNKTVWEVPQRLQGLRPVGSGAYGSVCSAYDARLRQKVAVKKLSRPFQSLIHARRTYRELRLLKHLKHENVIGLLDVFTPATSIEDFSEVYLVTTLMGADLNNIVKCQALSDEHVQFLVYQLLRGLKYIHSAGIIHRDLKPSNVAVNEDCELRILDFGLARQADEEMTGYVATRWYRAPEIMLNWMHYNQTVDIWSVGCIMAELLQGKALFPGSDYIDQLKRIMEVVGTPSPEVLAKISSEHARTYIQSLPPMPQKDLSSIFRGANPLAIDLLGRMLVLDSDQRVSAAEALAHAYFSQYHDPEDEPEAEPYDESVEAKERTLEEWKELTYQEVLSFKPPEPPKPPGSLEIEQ
Procedure: as §1

Tie2 = biological target: T6, Tie2 (Homo sapiens, UniProt Q02763); details: at a concentration of 10 μM; read-out: percentage inhibition of Tie2
T6 construct: purchased Upstate
Procedure: as §1

TrkB = biological target: T7, TrkB (Homo sapiens, UniProt Q16620); details: at a concentration of 10 μM; read-out: percentage inhibition of TrkB
T7 construct: purchased Upstate
Procedure: as §1

c-RAF = biological target: T8, c-RAF (Homo sapiens, UniProt P04049); details: at a concentration of 10 μM; read-out: percentage inhibition of c-RAF
T8 construct: purchased Upstate
T8 sequence (P04049 whole entry): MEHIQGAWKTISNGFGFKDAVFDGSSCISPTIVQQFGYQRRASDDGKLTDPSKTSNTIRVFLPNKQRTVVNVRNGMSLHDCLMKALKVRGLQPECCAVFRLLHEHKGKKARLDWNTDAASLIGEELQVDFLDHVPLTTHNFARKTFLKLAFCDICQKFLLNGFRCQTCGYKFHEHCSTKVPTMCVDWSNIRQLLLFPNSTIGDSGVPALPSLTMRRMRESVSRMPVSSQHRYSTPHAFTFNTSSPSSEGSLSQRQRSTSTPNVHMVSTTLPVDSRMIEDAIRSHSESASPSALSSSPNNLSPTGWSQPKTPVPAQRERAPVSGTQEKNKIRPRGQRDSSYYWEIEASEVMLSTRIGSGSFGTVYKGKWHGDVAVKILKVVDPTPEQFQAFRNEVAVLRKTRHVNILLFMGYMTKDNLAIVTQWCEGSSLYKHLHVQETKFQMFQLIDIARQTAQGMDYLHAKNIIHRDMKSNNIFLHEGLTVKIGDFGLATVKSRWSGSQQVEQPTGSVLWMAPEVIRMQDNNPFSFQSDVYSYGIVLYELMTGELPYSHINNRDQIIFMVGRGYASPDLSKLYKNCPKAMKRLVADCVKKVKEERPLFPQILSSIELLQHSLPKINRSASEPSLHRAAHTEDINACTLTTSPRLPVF
Procedure: as §1

c-SRC = biological target: T9, c-SRC (Homo sapiens, UniProt P12931); details: at a concentration of 10 μM; read-out: percentage inhibition of c-SRC
T9 construct: purchased Upstate
T9 sequence (P12931 whole entry): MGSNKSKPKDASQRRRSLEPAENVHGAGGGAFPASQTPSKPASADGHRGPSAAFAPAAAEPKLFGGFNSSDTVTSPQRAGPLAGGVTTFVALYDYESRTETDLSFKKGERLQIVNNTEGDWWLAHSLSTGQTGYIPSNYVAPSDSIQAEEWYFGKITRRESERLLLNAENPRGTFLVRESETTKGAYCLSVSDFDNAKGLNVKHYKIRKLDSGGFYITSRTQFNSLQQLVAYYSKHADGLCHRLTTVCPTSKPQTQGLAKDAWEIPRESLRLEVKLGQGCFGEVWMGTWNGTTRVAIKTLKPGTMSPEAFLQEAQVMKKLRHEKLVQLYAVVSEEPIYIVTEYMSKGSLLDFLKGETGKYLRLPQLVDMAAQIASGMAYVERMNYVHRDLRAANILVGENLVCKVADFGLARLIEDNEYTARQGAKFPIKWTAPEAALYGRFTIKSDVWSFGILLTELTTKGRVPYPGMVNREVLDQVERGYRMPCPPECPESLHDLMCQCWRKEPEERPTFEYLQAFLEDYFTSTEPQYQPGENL
Procedure: as §1

lck = biological target: T10, lck (Homo sapiens, UniProt P06239); details: at a concentration of 10 μM; read-out: percentage inhibition of lck
T10 construct: purchased Upstate
T10 sequence (P06239 whole entry): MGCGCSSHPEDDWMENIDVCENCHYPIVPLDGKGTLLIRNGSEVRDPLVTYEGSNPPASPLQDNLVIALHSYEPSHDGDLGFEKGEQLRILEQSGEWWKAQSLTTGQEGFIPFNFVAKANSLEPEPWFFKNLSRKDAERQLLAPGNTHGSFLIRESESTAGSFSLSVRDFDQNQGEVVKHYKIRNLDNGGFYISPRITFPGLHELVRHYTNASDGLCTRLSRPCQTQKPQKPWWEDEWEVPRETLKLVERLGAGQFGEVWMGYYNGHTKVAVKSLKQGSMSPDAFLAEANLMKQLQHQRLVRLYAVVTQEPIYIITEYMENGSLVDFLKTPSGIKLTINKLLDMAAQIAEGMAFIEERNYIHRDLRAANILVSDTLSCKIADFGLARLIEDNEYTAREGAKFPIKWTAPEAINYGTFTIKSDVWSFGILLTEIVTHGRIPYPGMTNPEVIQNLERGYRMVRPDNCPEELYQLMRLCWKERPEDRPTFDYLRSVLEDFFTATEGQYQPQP
Procedure: as §1

wild-type Abl = biological target: T11, wild-type Abl (Homo sapiens, UniProt P00519); details: at a concentration of 10 μM; read-out: percentage inhibition of wild-type Abl
T11 construct: purchased Upstate
T11 sequence (P00519 whole entry, species assumed): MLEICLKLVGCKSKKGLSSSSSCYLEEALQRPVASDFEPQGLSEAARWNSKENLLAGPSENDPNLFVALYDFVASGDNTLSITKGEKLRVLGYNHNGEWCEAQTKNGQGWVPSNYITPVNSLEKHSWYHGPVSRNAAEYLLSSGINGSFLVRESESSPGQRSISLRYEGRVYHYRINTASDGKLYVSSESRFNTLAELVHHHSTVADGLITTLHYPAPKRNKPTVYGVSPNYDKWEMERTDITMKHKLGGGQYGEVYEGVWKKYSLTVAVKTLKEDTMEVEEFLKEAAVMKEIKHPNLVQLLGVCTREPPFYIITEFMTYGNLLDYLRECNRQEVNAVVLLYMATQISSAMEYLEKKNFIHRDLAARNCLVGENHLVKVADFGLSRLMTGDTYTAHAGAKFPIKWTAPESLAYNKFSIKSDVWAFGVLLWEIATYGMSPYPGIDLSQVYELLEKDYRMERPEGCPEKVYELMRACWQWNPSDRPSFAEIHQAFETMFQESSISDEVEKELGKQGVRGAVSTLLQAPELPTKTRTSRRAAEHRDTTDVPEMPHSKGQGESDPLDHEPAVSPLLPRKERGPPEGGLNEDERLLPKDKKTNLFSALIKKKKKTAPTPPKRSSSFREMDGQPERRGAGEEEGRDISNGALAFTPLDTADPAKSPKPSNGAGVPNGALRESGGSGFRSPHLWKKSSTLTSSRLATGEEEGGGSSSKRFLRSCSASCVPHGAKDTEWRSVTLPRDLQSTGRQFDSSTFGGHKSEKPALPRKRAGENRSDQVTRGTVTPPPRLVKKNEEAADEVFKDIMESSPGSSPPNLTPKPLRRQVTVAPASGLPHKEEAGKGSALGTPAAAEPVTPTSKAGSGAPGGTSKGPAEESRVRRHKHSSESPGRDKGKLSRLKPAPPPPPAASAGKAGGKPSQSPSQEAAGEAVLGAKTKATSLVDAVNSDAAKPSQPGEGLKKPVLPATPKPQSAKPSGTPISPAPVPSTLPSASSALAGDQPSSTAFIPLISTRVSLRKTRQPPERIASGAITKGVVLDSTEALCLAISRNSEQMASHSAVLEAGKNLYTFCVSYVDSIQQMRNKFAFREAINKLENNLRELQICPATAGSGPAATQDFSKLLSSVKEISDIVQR
Procedure: as §1

T1 sequence (P45984 whole entry): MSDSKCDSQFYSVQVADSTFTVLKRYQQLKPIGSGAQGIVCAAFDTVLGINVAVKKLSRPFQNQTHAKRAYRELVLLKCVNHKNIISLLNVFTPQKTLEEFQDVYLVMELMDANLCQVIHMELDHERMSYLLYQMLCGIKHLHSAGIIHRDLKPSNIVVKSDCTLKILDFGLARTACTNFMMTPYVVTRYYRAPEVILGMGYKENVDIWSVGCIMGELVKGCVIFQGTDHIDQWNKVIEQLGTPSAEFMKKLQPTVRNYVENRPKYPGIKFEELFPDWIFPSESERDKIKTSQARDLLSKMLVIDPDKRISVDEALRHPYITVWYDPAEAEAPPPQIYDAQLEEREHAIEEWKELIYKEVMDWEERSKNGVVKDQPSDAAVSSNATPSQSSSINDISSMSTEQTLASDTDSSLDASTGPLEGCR

inhibition at 10 µM (JNK2α2): 97% | inhibition at 10 µM (MKK6): 100% | inhibition at 10 µM (PDGFRα): 97% | inhibition at 10 µM (SAPK2α): 100% | inhibition at 10 µM (SAPK2β): 100% | inhibition at 10 µM (Tie2): 99% | inhibition at 10 µM (TrkB): 97% | inhibition at 10 µM (c-RAF): 100% | inhibition at 10 µM (c-SRC): 99% | inhibition at 10 µM (lck): 100% | inhibition at 10 µM (wild-type Abl): 97%
Compound: Cc1ccc(NC(=O)c2cccc(C(F)(F)F)c2)cc1Nc1nccn1-c1cc(NCCN2CCOCC2)ncn1 [Compound 3, N-(4-Methyl-3-{1-[6-(2-morpholin-4-yl-ethylamino)-pyrimidin-4-yl]-1H-imidazol-2-ylamino}-phenyl)-3-trifluoromethyl-benzamide]

Source: patent US7745437B2, “Compounds and compositions as protein kinase inhibitors” (IRM LLC, priority 2004, dated 2010)
